Assay [1] concerns the target T1, recombinant human A2A receptors (Homo sapiens, UniProt P29274).
T1 construct: expressed in transfected cells; host or cells: Sf9 insect cells infected with virus; membranes
Nature of the assay: Radioligand competition binding with 125I-APE or 125I-ZM241385, Sf9 cell membranes. The following applies: 125I-APE or 125I-ZM241385, Sf9 membranes; class symbols. Here is the method: Cell culture and membrane preparation. Sf9 cells were cultured in Grace's medium supplemented with 10% fetal bovine serum, 2.5 μg/ml amphotericin B and 50 μg/ml gentamycin in an atmosphere of 50% N2/50% O2. Viral infection was performed at a density of 2.5×10^6 cells/mL with a multiplicity of infection of two for each virus used. Infected cells were harvested 3 days post-infection and washed twice in insect PBS (PBS pH 6.3). Cells were then resuspended in lysis buffer (20 mM HEPES pH 7.5, 150 mM NaCl, 3 mM MgCl2, 1 mM α-mercaptoethanol (BME), 5 μg/mL leupeptin, 5 μg/mL pepstatin A, 1 μg/mL aprotinin, and 0.1 mM PMSF) and snap frozen for storage at −80° C. Cells were thawed on ice, brought to 30 mL total volume in lysis buffer, and burst by N2 cavitation (600 psi for 20 minutes). A low-speed centrifugation was performed to remove any unlysed cells (1000×g for 10 minutes), followed by a high-speed centrifugation (17,000×g for 30 minutes). The pellet from the final centrifugation was homogenized in buffer containing 20 mM HEPES pH 8, 1100 mM NaCl, 1% glycerol, 2 μg/mL leupeptin, 2 μg/mL pepstatin A, 2 μg/mL Aprotinin, 0.1 mM PMSF, and 10 μM GDP using a small glass homogenizer followed by passage through a 26 gauge needle. Membranes were aliquoted, snap frozen in liquid N2, and stored at −80° C.
Radioligand Binding Assays. […] Binding experiments were performed in triplicate with 5 μg (A2A) or 25 μg (A1 and A3) membrane protein in a total volume of 00.1 mL HE buffer (20 mM HEPES and 1 mM EDTA) with 1 U/mL adenosine deaminase and 5 mM MgCl2 with or without 50 μM GTPγS. Membranes were incubated with radioligands at room temperature for three hours (for agonists) or two hours (for antagonists) in Millipore Multiscreen® 96-well GF/C filter plates and assays were terminated by rapid filtration on a cell harvester (Brandel, Gaithersburg, Md.) followed by 4×150 μl washes over 30 seconds with ice cold 10 mM Tris-HCl, pH 7.4, 10 mM MgCl2. Nonspecific binding was measured in the presence of 50 μM NECA.

The subject of assay [2] is Purified human neutrophils. Nature of the assay: Luminol enhanced chemiluminescence (neutrophil oxidative activity), fMLP stimulated. The assay is classed as cell-based. The following applies: Homo sapiens, Neutrophil; read-out: Functional. The source says:
Chemiluminescence Methods: Luminol enhanced chemiluminescence, a measure of neutrophil oxidative activity, is dependent upon both superoxide production and mobilization of the granule enzyme myeloperoxidase. The light is emitted from unstable high-energy oxygen species such as hypochlorous acid and singlet oxygen generated by activated neutrophils.
Purified human neutrophils (2×10^6/ml) suspended in Hanks balanced salt solution containing 0.1% human serum albumin (HA), adenosine deaminase (1 U/mL) and rolipram (100 nM) were incubated (37 C) in a water bath for 15 min with or without rhTNF (10 U/ml). Following incubation 100 µL aliquots of the PMN were transferred to wells (White walled clear bottom 96 well tissue culture plates Costar #3670; 2 wells/condition) containing […] and luminol (final concentration 100M) with or without adenosine agonist (final agonist concentrations 0.01-1000 nM). The plate was incubated 5 min (37 C) and then fMLP (50 l in HA; final concentration […]) was added to all wells.
Peak chemiluminescence was determined with a Victor 1420 Multilabel Counter in the chemiluminescence mode using the Wallac Workstation software. Data are presented as peak chemiluminescence as percent of activity in the absence of an adenosine agonist. The EC50 was determined using PRISM software. All compounds were tested with PMNs from three separate donors.

Assay [3] has as its target T2, human A3 AR (Homo sapiens, UniProt P0DMS8).
T2 construct: expressed in transfected cells; membranes
T2 sequence (P0DMS8 1-318): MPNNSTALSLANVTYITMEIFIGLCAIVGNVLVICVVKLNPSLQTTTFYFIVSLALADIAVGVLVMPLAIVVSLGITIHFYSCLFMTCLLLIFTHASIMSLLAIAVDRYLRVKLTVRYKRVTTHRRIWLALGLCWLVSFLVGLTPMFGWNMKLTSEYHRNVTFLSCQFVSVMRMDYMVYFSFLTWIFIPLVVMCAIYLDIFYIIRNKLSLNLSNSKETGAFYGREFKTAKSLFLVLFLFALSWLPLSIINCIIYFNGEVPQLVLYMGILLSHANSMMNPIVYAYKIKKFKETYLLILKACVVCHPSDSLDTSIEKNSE
Nature of the assay: Radioligand competition binding with 125I-ABA, membranes of HEK 293 cells stably expressing the receptor. The conditions noted are these: Ki derived from IC50, class symbols. Here is the method: Cell culture and membrane preparation. Sf9 cells were cultured in Grace's medium supplemented with 10% fetal bovine serum, 2.5 μg/ml amphotericin B and 50 μg/ml gentamycin in an atmosphere of 50% N2/50% O2. Viral infection was performed at a density of 2.5×10^6 cells/mL with a multiplicity of infection of two for each virus used. Infected cells were harvested 3 days post-infection and washed twice in insect PBS (PBS pH 6.3). Cells were then resuspended in lysis buffer (20 mM HEPES pH 7.5, 150 mM NaCl, 3 mM MgCl2, 1 mM α-mercaptoethanol (BME), 5 μg/mL leupeptin, 5 μg/mL pepstatin A, 1 μg/mL aprotinin, and 0.1 mM PMSF) and snap frozen for storage at −80° C. Cells were thawed on ice, brought to 30 mL total volume in lysis buffer, and burst by N2 cavitation (600 psi for 20 minutes). A low-speed centrifugation was performed to remove any unlysed cells (1000×g for 10 minutes), followed by a high-speed centrifugation (17,000×g for 30 minutes). The pellet from the final centrifugation was homogenized in buffer containing 20 mM HEPES pH 8, 1100 mM NaCl, 1% glycerol, 2 μg/mL leupeptin, 2 μg/mL pepstatin A, 2 μg/mL Aprotinin, 0.1 mM PMSF, and 10 μM GDP using a small glass homogenizer followed by passage through a 26 gauge needle. Membranes were aliquoted, snap frozen in liquid N2, and stored at −80° C. Membranes from cells stably expressing the human A1 AR (CHO K1 cells) or A3 AR (HEK 293 cells) were prepared as described (Robeva et al., 1996).
Radioligand Binding Assays. Radioligand binding to recombinant human A2A receptors in Sf9 cell membranes was performed using either the radiolabeled agonist, ^125I-APE (Luthin et al., 1995) or the radiolabeled antagonist, ^125I-ZM241385 (^125I-ZM). To detect the high affinity, GTPγS-sensitive state of A1 and A3 AR, we used the agonist, ^125I-ABA (Linden et al., 1985; Linden et al., 1993). Binding experiments were performed in triplicate with 5 μg (A2A) or 25 μg (A1 and A3) membrane protein in a total volume of 00.1 mL HE buffer (20 mM HEPES and 1 mM EDTA) with 1 U/mL adenosine deaminase and 5 mM MgCl2 with or without 50 μM GTPγS. Membranes were incubated with radioligands at room temperature for three hours (for agonists) or two hours (for antagonists) in Millipore Multiscreen® 96-well GF/C filter plates and assays were terminated by rapid filtration on a cell harvester (Brandel, Gaithersburg, Md.) followed by 4×150 μl washes over 30 seconds with ice cold 10 mM Tris-HCl, pH 7.4, 10 mM MgCl2. Nonspecific binding was measured in the presence of 50 μM NECA. Competition binding assays were performed as described (Robeva et al., 1996) using 0.5-1 nM ^125I-APE, ^125I-ZM241385, or ^125I-ABA. […] The Ki values for competing compound binding to a single site were derived from IC50 values with correction for radioligand and competing compound depletion as described previously (Linden, 1982).

Assay [4] has as its target T3, human A1 AR (Homo sapiens, UniProt P30542).
T3 construct: expressed in transfected cells; membranes
T3 sequence (P30542 1-326): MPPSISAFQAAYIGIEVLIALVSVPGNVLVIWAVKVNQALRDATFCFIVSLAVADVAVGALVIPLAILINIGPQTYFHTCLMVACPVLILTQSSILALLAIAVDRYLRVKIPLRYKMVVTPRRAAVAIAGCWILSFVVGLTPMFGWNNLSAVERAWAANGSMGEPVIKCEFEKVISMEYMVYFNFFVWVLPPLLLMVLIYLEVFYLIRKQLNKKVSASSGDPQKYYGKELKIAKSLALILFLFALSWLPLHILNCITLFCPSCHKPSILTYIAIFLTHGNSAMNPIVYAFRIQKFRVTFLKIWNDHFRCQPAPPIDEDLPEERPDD
Nature of the assay: Radioligand competition binding with 125I-ABA, membranes of CHO K1 cells stably expressing the receptor. The following applies: Ki derived from IC50, class symbols.

The structures appear in SMILES notation.

T1 sequence (P29274 whole entry): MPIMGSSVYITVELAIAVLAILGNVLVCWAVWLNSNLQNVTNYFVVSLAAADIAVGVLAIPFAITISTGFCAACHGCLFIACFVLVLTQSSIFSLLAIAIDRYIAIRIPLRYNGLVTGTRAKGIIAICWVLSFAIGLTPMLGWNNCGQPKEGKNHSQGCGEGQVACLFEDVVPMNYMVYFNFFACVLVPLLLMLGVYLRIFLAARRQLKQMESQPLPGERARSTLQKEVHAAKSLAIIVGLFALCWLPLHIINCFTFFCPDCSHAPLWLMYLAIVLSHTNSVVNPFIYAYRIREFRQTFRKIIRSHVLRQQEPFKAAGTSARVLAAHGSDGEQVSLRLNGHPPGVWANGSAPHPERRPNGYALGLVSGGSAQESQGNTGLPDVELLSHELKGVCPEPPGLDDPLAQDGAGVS

Regarding `COC(=O)c1ccc(OC(=O)N2CCC(CC#Cc3nc(N)c4ncn([C@@H]5O[C@H](CO)[C@@H](O)[C@H]5O)c4n3)CC2)cc1` [Compound 13, 2-{3-[1-((4-Methoxycarbonylphenoxy)carbonyl)piperidin-4-yl]propyn-1-yl}adenosine], the Ki in assay [1] was below 0.001 µM; in assay [3], below 0.1 µM; in assay [4], below 0.1 µM. For the same compound, the EC50 in assay [2] was below 0.01 µM.
With `CCNC(=O)[C@H]1O[C@@H](n2cnc3c(N)nc(C#CCC4CCN(C(=O)OCc5ccc([N+](=O)[O-])cc5)CC4)nc32)[C@@H](O)C1O` (stereo partly shown) [Compound 33, N-Ethyl 2-{3-[1-(4-nitrobenzyloxycarbonyl)-4-piperidinyl]-1-propyn-1-yl}adenosine-5′-uronamide], the Ki is below 0.001 µM in assay [1], below 0.01 µM in assay [3] and below 0.1 µM in assay [4]. Besides, the EC50 in assay [2] is below 0.01 µM.
As to `Nc1nc(C#CCC2CCN(C(=O)Nc3ccc(Cl)cc3)CC2)nc2c1ncn2[C@@H]1O[C@H](CO)C(O)[C@@H]1O` (stereo partly shown) [Compound 45], the Ki in assay [1] is below 0.01 µM; in assay [3] it was below 0.1 µM; in assay [4], below 0.1 µM. In assay [2], the EC50 was above 0.1 µM.
On to `Nc1nc(C#CCC2CCN(C(=O)Oc3ccccc3Cl)CC2)nc2c1ncn2[C@@H]1O[C@H](C(=O)NC2CC2)C(O)[C@@H]1O` (stereo partly shown) [Compound 22, N-Cyclopropyl 2-{3-[1-(2-chlorophenyloxycarbonyl)-4-piperidinyl]-1-propyn-1-yl}adenosine-5′-uronamide], for which the Ki in assay [1] was below 0.001 µM; in assay [3], above 0.1 µM; in assay [4] it was below 0.1 µM. The EC50 in assay [2] is below 0.01 µM.
Taken in the same sequence, the figures for `COc1ccc(OC(=O)N2CCC(CC#Cc3nc(N)c4ncn([C@@H]5O[C@H](C(=O)NC6CC6)C(O)[C@@H]5O)c4n3)CC2)cc1` (stereo partly shown) [Compound 23] were below 0.001 µM, below 0.1 µM, below 0.1 µM and below 0.001 µM.
Taken in the same sequence, the figures for `CCNC(=O)[C@H]1O[C@@H](n2cnc3c(N)nc(C#CCC4CCN(C(=O)OCc5ccccc5)CC4)nc32)[C@@H](O)C1O` (stereo partly shown) [Compound 32, N-Ethyl 2-{3-[1-(benzyloxycarbonyl)-4-piperidinyl]-1-propyn-1-yl}adenosine-5′-uronamide, reference compound] were below 0.001 µM, below 0.1 µM, above 0.1 µM and below 0.01 µM.
Taken in the same sequence, the figures for `Nc1nc(C#CCC2CCN(C(=O)Oc3ccccc3Cl)CC2)nc2c1ncn2[C@@H]1O[C@H](CO)[C@@H](O)[C@H]1O` [Compound 35, 2-{3-[1-((2-Chloro)phenoxycarbanoyl)piperidin-4-yl]propyn-1-yl}adenosine] were below 0.001 µM, below 0.1 µM, below 0.1 µM and below 0.01 µM.
Consider `COC(=O)c1ccc(OC(=O)N2CCC(CC#Cc3nc(N)c4ncn([C@@H]5O[C@H](C(=O)NC6CC6)C(O)[C@@H]5O)c4n3)CC2)cc1` (stereo partly shown) [Compound 9, N-Cyclopropyl 2-{3-[1-(4-methoxycarbonylphenoxycarbanoyl)-4-piperidinyl]-1-propyn-1-yl}adenosine-5′-uronamide], for which the Ki in assay [1] is below 0.001 µM; in assay [3], below 0.1 µM; in assay [4], below 0.1 µM. Moreover, the EC50 in assay [2] is below 0.01 µM.
On to `CCNC(=O)[C@H]1O[C@@H](n2cnc3c(N)nc(C#CCC4CCN(C(=O)Oc5ccc(C)cc5)CC4)nc32)[C@@H](O)C1O` (stereo partly shown) [Compound 16, N-Ethyl 2-{3-[1-(4-methylphenoxycarbonyl)-4-piperidinyl]-1-propyn-1-yl}adenosine-5′-uronamide], for which the Ki in assay [1] was below 0.001 µM; in assay [3], below 0.01 µM; in assay [4], below 0.1 µM. In addition, in assay [2], the EC50 is below 0.001 µM.
In the case of `Nc1nc(C#CCC2CCN(C(=O)Oc3cccc(C(F)(F)F)c3)CC2)nc2c1ncn2[C@@H]1O[C@H](C(=O)NC2CC2)C(O)[C@@H]1O` (stereo partly shown) [Compound 3, N-Cyclopropyl 2-{3-[1-(3-(trifluoromethyl)phenoxycarbonyl)-4-piperidinyl]-1-propyn-1-yl}adenosine-5′-uronamide], the inhibition constant Ki was below 0.001 µM in assay [1], below 0.1 µM in assay [3] and below 0.1 µM in assay [4]. Moreover, in assay [2], the EC50 was below 0.01 µM.

(Values after patent US7888329B2, “Substituted aryl piperidinylalkynyladenosines as A2AR agonists” (PGxHealth, LLC, priority 2006, dated 2011).)
